Data on two compounds can be found in US10959938B2, “Combination of (3S,3S′) 4,4′-disulfanediylbis(3-aminobutane 1-sulfonic acid) and a second antihypertensive agent” (QUANTUM GENOMICS, priority 2011, dated 2021).

The experiment concerns spontaneously hypertensive rats (SHR). The experiment can be described thus: Mean arterial blood pressure (MABP) and heart rate recording in conscious, unrestrained SHR after acute oral administration. In kind it is in vivo, rat. The following applies: 1 hour (FIG. 2).

Procedure: RB150, the ACEI, enalapril (supplied from Merck Sharp and Dohme research Lab), and the ARB, valsartan (Sigma-Aldrich), were dissolved in sterile saline and adjusted to pH 7.4 for in vivo administration.
Male spontaneously hypertensive rats (SHR), weighing 250 to 350 g, were obtained from Charles River Laboratories (L'Arbresle, France) and animals were kept under artificial light (12-hours light/12-hours dark cycle) with a normal standard diet and water given ad libitum. The experiments were conducted according to the National Institutes of Health Guide for the Care and Use of Laboratory Animals.
Twelve weeks male SHR were anesthetized with pentobarbital sodium (60 mg/kg, i.p, Centravet). Catheters were implanted in the femoral artery. The femoral arterial catheter was brought under the skin and emerged at the nape of the neck. After surgery, each rat was given an intraperitoneal injection of 0.1 mL of penicillin-streptomycin (50,000 units/mL; Sigma) and allowed to recover for at least 24 hours before the experiment. […] Each experiment was monitored by using a COBE CDX III pressure transducer (Phymep, Paris, France) connected to the MacLab system (Phymep) consisting of a MacLab hardware unit and chart software running on a Macintosh computer. […]

Take `N[C@@H](CCS(=O)(=O)O)CSSC[C@@H](N)CCS(=O)(=O)O` [RB150, (3S,3S′) 4,4′-disulfanediylbis(3-aminobutane 1-sulfonic acid)]: the “BP decrease 1 hour after drug administration” value (RB150 alone 150 mg/kg po) was “did not induce any significant BP decrease”. Take `CCOC(=O)[C@H](CCc1ccccc1)N[C@@H](C)C(=O)N1CCC[C@H]1C(=O)O` [enalapril]: for the setting “enalapril alone 3 mg/kg po”, the “BP decrease 1 hour after drug administration” value was “did not induce any significant BP decrease”.
